Laboratory results: EP4790048A1, “S1PR4 REGULATOR COMPOUND FOR AUTOIMMUNE DISEASE TREATMENT AND APPLICATION THEREOF” (Shengyuan Zetong (Shanghai) Pharmaceutical Co., Ltd, priority 2023, dated 2025)
“Also recorded” adds a separate entry of the source.

How the values were obtained:
Type in all cases: in vivo
BALB/c mice [1] = test: DSS-induced acute ulcerative colitis in mice (Example 6)
Protocol: From Day 0 to Day 14 of the experiment, the mice were weighed daily and their blood and stool conditions were observed, scored and recorded according to the following table (Table 1). Random grouping was performed on Day 1, and modeling was conducted from Day 1 to Day 7. All groups except the Control group were given 3.5% DSS water daily. Re-grouping was performed on Day 8. The Control group and Model group received no medication and were given tap water; the other groups were administered intragastrically with 1 mg/kg, 3 mg/kg, 9 mg/kg, and SASP (Sulfasalazine or Salicylazosulfapyridine) 500 mg/kg, respectively. On Day 15, blood and colon samples were collected, colon length was measured, and a 1-2 cm segment of the colon was fixed with formaldehyde.
(§1) • BALB/c mice, male, 20-22 g • Dextran sulfate sodium MW: 36,000-50,000 (DSS) • 30 1 mg/kg, 3 mg/kg, 9 mg/kg, SASP (500 mg/kg) indicators were observed.
(§2) (1) Clinical Symptom Score: The mice were weighed daily and their blood and stool were observed during the experiment for DAI scoring, which was graded and recorded according to the following table (Table 1).
(§3) (2) After the experiment, the colon was removed, its length measured and weight recorded. The colon-to-body weight index (colon weight/body weight × 100%) and colon swelling rate (colon weight/length × 100%) were calculated.
(§4) Colonic tissue approximately 1 cm from the anal margin (0.5 cm) and ileocecal region tissue were collected for histopathological examination. After H&E staining, the tissues were scored under single-blind conditions to evaluate the level of distal colon inflammation and tissue damage; scoring was performed according to the Ameho criteria and calculated as follows: • Score 0: No abnormal findings in the texture. • Score 1: Mild inflammatory infiltration of the mucosa and/or submucosa (mixed with neutrophils), submucosal edema, punctate mucosal erosion, accompanied by capillary proliferation. The muscularis mucosae is intact. • Score 2: Changes of Score 1 account for more than 50%. • Score 3: Obvious inflammatory infiltration and edema (neutrophils are often predominant); ulcers usually penetrate the muscularis mucosae to reach the submucosa. There is little inflammatory cell infiltration in the muscularis propria and no muscle necrosis. • Score 4: Changes of Score 3 account for more than 50%. • Score 5: Large confluent ulcers with coagulative necrosis, massive neutrophil infiltration at the margins and few monocytes. Necrotic tissue penetrates the muscularis propria. • Score 6: Changes of Score 5 account for more than 50% of the specimen.
The fence function of Occludin separates the apical and basolateral sides of the epithelial cell plasma membrane, restricting the free flow of lipids on the cell membrane, facilitating the formation of cell polarity, maintaining the impermeability and rigidity of the intestinal mucosa, and preventing the entry of pathogenic microorganisms. The barrier function of Occludin can regulate the transport of small molecules and maintain tissue homeostasis. […]

BALB/c mice [2] = test: DSS-induced chronic ulcerative colitis in mice (Example 6)
Description: BALB/c mice were acclimatized for 7 days before the experiment. From Day 7 to Day 50 of the experiment, the mice were weighed daily and their blood and stool conditions were observed, scored and recorded according to the following table (Table 1). After random grouping, all groups except the Control group were given free access to 2-3% DSS solution for modeling from Day 7 to Day 14, while the Control group received normal drinking water during the same period. One cycle lasted 14 days and was repeated 3 times. Re-grouping was performed at the start of the final cycle to initiate drug administration. The Control group and Model group received no drug but the same solvent. The other groups were intragastrically administered 1 mg/kg, 3 mg/kg, 9 mg/kg, and SASP 500 mg/kg respectively. On Day 45, blood and colon samples were collected, colon length was measured, and a 1-2 cm colon segment was fixed with formaldehyde.
as §1, §2, §3, §4
The fence function of Occludin separates the apical and basolateral sides of the epithelial cell plasma membrane, restricting the free flow of lipids on the cell membrane, facilitating the formation of cell polarity, maintaining the impermeability and rigidity of the intestinal mucosa, and preventing the entry of pathogenic microorganisms. The barrier function of Occludin can regulate the transport of small molecules and maintain tissue homeostasis. The expression and distribution of related proteins are detected by immunohistochemistry.
During modeling, the body weight of mice in the control group increased steadily. In the model group, during the first modeling period, mice were given 3% DSS drinking water ad libitum for 7 days, followed by tap water ad libitum for 7 days. On Day 4 of modeling, the body weight of mice began to decrease generally, reaching the lowest point on Day 8, and then started to rise. During the second modeling period, mice were given 2% DSS drinking water ad libitum for 7 days, followed by tap water ad libitum for 7 days. […]

SD rats = test: MIA-induced osteoarthritis (OA) model in rats
Protocol: SD rats, approximately 200 g, male. Purchased from Shanghai Bikai Animal Co., Ltd. Adaptive feeding was conducted for about 7 days.
3.1.1 Anesthesia: the rat was placed into the anesthesia box, the O2 gas source and the gas delivery pump were turned on, and the gas adjustment knob was rotated to set the ratio of O2 to isoflurane at 8:2. The anesthesia depth knob was adjusted: first the indicator was turned to 3 to induce deep anesthesia in the rat; during the subsequent surgical procedure, the indicator was adjusted to 1.5 to maintain anesthesia. The three-way valve was opened to deliver gas into both the anesthesia box and the rat anesthesia mask.
The syringe needle was inserted at a 45° angle to the plateau along the lateral side of the patellar ligament, as shown in the figure below. The Control group is injected with 50 µl of 0.9% sterile normal saline, while the other groups are injected with 50 µl of sterile normal saline containing 3 mg of MIA. After the procedure, the rat was removed, placed in a breeding cage, and irradiated with an incandescent lamp to help restore body temperature until the rat recovers from anesthesia.
The Control group was administered 5% DMSO + 35% PEG400 + 60% normal saline. The compounds were dissolved in a system consisting of 5% dimethyl sulfoxide (DMSO), 35% polyethylene glycol 400 (PEG 400), and 60% normal saline. The drug solutions were prepared on the evening one day before administration.
The rats were acclimated for 1 week and randomly divided into groups, with a total of 10 rats. The Control group was administered 5% DMSO + 35% PEG400 + 60% normal saline, while the other groups were given the test compounds dissolved in 5% DMSO + 35% PEG400 + 60% normal saline.
3.4.1. From Day 1 to Day 14 of the experiment, the rats were administered intragastrically once daily, with a gavage volume of 5 mL/kg. The Control group and Model group were given 5% DMSO + 35% PEG400 + 60% normal saline throughout the experiment, while the other groups were administered the corresponding drugs.
On Day 7 and Day14 of the experiment, behavioral and joint pain tests were performed on the rats. To minimize confounding factors, the tests were conducted 1 hour after administration at a fixed time, preventing variations in the rats' condition at different time points from affecting the experimental results. The rats were allowed to acclimate to the environment for 20 minutes before the start of the experiment. • (1) Observation of walking distance and rearing times within five minutes: the dimensions of the resin box were measured and a paper sheet of the corresponding size was prepared. 1 cm × 1 cm grids were drawn on the paper sheet. The paper sheet was sealed with a transparent tape to prevent damage from rat excrement. Then the paper sheet with 1 cm × 1 cm grids was placed into the transparent resin box, ensuring a flat bottom. A camera device was used to record the walking process and trajectory of the rat within 5 minutes, and the walking distance and rearing times of the rat were counted. • (2) Joint Pain Assessment: After fixing the rat and allowing it to calm down, its knee joint was gently bent. […] The knee joint pain severity in rats is reflected by the scores of leg withdrawal and vocalization. The joint pain assessment was performed every 5 seconds for a total of 5 times.
On Day 15 of the experiment, the rats were anesthetized, and blood was collected from their eyeballs. The serum was left to stand overnight at 4°C, centrifuged at 3600 rpm for 15 minutes at 4°C. The serum was aspirated and stored at -80°C. The rats were sacrificed by cervical dislocation. An incision was made along the knee joint on ice to remove fur, muscle, and other tissues. For each group, 5 rats were used; bilateral knee joints were dissected, and the color, roughness, and integrity of the femoral condyle surface were observed. The knee joint cartilage was then harvested and cryopreserved at -80°C. […]

[3] = DAY7, diclofenac sodium 2.5 mg/kg, vs Model group

| Structure (SMILES) | body weight recovery (BALB/c mice [1]; 30 at 3 mg/kg, SASP at 500 mg/kg, vs model group) | daily DAI score (BALB/c mice [1]; 30 treatment groups, SASP 500 mg/kg, vs model group) | colon pathological changes (H&E staining) (BALB/c mice [1]; SASP 500 mg/kg) | survival rate (BALB/c mice [1]; SASP 500 mg/kg intragastric from Day 8, 8 mice, model group 75%) | Occludin expression in colonic mucosa (immunohistochemistry) (BALB/c mice [1]; vs Model group) | daily DAI score (BALB/c mice [2]; 30 treatment group, SASP 500 mg/kg, vs model group) | body weight recovery (BALB/c mice [2]; 30 treatment groups (1, 3, 9 mg/kg), SASP 500 mg/kg, vs model group) | colon pathological changes (H&E staining) (BALB/c mice [2]; SASP 500 mg/kg) | Occludin expression in colonic mucosa (immunohistochemistry) (BALB/c mice [2]; vs Model group) | five-minute walking distance (SD rats; [3]) | pain index (SD rats; [3]) | gross observation of knee joint femoral condyle cartilage (SD rats; Day 15 dissection, 5 rats per group) | serum IL-10 level (SD rats; Elisa, vs Model group) | OARSI score (severity of knee osteoarthritis) (SD rats; diclofenac sodium 2.5 mg/kg, vs Model group) | Safranin O-Fast Green staining of knee joints (SD rats; vs Model group) |
| --- | --- | --- | --- | --- | --- | --- | --- | --- | --- | --- | --- | --- | --- | --- | --- |
| O=C(O)c1cc(/N=N/c2ccc(S(=O)(=O)Nc3ccccn3)cc2)ccc1O [SASP, Sulfasalazine, reference compound] | faster body weight recovery with a greater rebound amplitude | decreased more rapidly | still had inflammatory cell infiltration, but to a lesser extent than the Model group | 87.5% | the expression of Occludin was increased | decreased more rapidly | recovered rapidly and increased substantially | inflammatory cell infiltration, but to a lesser extent than the Model group | the expression of Occludin was increased |  |  |  |  |  |  |
| O=C(O)Cc1ccccc1Nc1c(Cl)cccc1Cl [diclofenac sodium, reference compound] |  |  |  |  |  |  |  |  |  | increased significantly | significantly decreased | knee cartilage in most rats became smooth and glossy; also recorded: cartilage of most rat knee joints became smooth and bright | significantly increased | significantly milder than that in the Model group | enhanced Safranin O staining |
